Results published in patent US11696913B2, “Prolonged ectoparasite-controlling agent for animal” (MITSUI CHEMICALS AGRO, INC., priority 2017, dated 2023).

Experiments:
[1] = system: Ctenocephalides felis; assay: In vitro contact test with fleas; conditions: read-out: insecticidal activity; for pest or weed control at 0.04 µg/cm2, 0.04 µg/cm2: dose 0.04 μg/cm^2, dead or moribund fleas after 48 h; for pest or weed control at 0.2 µg/cm2, 0.2 µg/cm2: dose 0.2 μg/cm^2, dead or moribund fleas after 48 h; for pest or weed control at 1 µg/cm2, 1 µg/cm2: dose 1 μg/cm^2, dead or moribund fleas after 48 h
Method in brief: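 Activity is the percentage of fleas dead or moribund at 48 h, judged by immobility or uncoordinated movement after tapping. Tubes were coated by evaporating acetone solutions (900 ppm gives 5 μg/cm^2), then held 5-10 adult fleas of both sexes at room temperature and ambient humidity.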

[2] = system: Amblyomma americanum; assay: In vitro contact test with hard ticks (Amblyomma americanum nymphs); conditions: read-out: acaricidal activity; for pest or weed control at 0.2 µg/cm2, 0.2 µg/cm2: dose 0.2 μg/cm^2, 48 h; for pest or weed control at 1 µg/cm2, 1 µg/cm2: dose 1 μg/cm^2, 48 h
Method in brief: (§1)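 Acaricidal activity = % ticks dead or moribund after 48 h contact with acetone-deposited compound on vial walls (e.g., 900 ppm solution → 5 μg/cm^2). Ambient conditions for R. sanguineus, 21° C./85% rel. hum. for other species; heat challenge at 45-50° C. separated climbers from moribund ticks.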

[3] = system: Dermacentor variabilis; assay: In vitro contact test with adult hard ticks (Dermacentor variabilis); conditions: read-out: acaricidal activity; for pest or weed control at 0.2 µg/cm2, 0.2 µg/cm2: dose 0.2 μg/cm^2, 48 h; for pest or weed control at 1 µg/cm2, 1 µg/cm2: dose 1 μg/cm^2, 48 h
Method in brief: as §1

[4] = system: Rhipicephalus (Boophilus) microplus; assay: In vitro injection test with Rhipicephalus (Boophilus) microplus (BOOPMI Inj); conditions: 168 h, laid fertile eggs after 7 days, read-out: acaricidal activity; for pest or weed control at 32 ng: dose 0.032 μg/animal injected; for pest or weed control at 0.00016 mg: dose 0.16 μg/animal injected; for pest or weed control at 0.0008 mg: dose 0.8 μg/animal injected
Method in brief: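 Five engorged adult females each get a 1 μl abdominal injection of compound dissolved and diluted in DMSO. Kept 7 days at 28° C./85% rel. hum.; percent activity rates egg laying and egg fertility (0% all fertile, 100% none laid or infertile).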

[5] = system: Ctenocephalides felis; assay: Ctenocephalides felis in-vitro feeding test with fleas (CTECFE oral); conditions: 48 hours, read-out: insecticidal feeding activity; for pest or weed control at 0.16 ppm: dose 0.16 ppm in citrated cattle blood; for pest or weed control at 0.8 ppm: dose 0.8 ppm in citrated cattle blood; for pest or weed control at 4 ppm: dose 4 ppm in citrated cattle blood
Method in brief: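 Scored as percent fleas killed (0–100%) 48 hours after feeding began. Compound, dissolved in DMSO and diluted into citrated cattle blood, was offered via a parafilm membrane to roughly 20 adult male and female C. felis at about 37° C.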

[6] = system: Spodoptera litura; assay: Insecticidal testing against common cutworm; type: in vivo; conditions: foliar, 144 h, concentration 100 ppm, cabbage leaf dip, second-stage larvae, after 6 days, read-out: pesticidal rate
From the text: Insecticidal Testing Against Common Cutworm (Spodoptera litura)

[7] = system: Plutella xylostella; assay: Insecticidal testing against diamondback moth; type: in vivo; conditions: foliar, 144 h, concentration 100 ppm, cabbage leaf dip, third-stage larvae, after 6 days, read-out: pesticidal rate
From the text: Insecticidal Testing Against Diamondback Moth (Plutella xylostella)

[8] = system: Laodelphax striatellus; assay: Insecticidal testing against small brown planthopper; type: in vivo; conditions: 144 h, concentration 100 ppm, sprayed rice seedlings, after 6 days, read-out: pesticidal rate
Description: Insecticidal Testing Against Small Brown Planthopper (Laodelphax striatellus)
An additional test was carried out with 10 small brown planthoppers by preparing an acetone solution of the testing compound diluted to a predetermined concentration, spraying the solution onto rice seedlings and air drying the rice seedlings. The medicament was all used as received. The rice seedlings were placed in a constant-temperature room at 25° C., and the survival rate was investigated after 6 days. The test was carried out by means of one group of 10 pests.

[9] = system: Rhipicephalus sanguineus; assay: In vitro contact test with adult hard ticks (Rhipicephalus sanguineus); conditions: read-out: acaricidal activity; for pest or weed control at 1 µg/cm2, 1 µg/cm2: dose 1 μg/cm^2, 48 h; for pest or weed control at 0.2 µg/cm2, 0.2 µg/cm2: dose 0.2 μg/cm^2, 48 h
Method in brief: as §1

Row | Structure (SMILES) | pest or weed control at 0.04 µg/cm2, 0.04 µg/cm2 [1] [%] | pest or weed control at 0.2 µg/cm2, 0.2 µg/cm2 [1] [%] | pest or weed control at 1 µg/cm2, 1 µg/cm2 [1] [%] | pest or weed control at 0.04 µg/cm2, 0.04 µg/cm2 ([2]; dose 0.04 μg/cm^2, 48 h) [%] | pest or weed control at 0.2 µg/cm2, 0.2 µg/cm2 [2] [%] | pest or weed control at 1 µg/cm2, 1 µg/cm2 [2] [%] | pest or weed control at 0.2 µg/cm2, 0.2 µg/cm2 [3] [%] | pest or weed control at 1 µg/cm2, 1 µg/cm2 [3] [%] | pest or weed control at 32 ng [4] [%] | pest or weed control at 0.00016 mg [4] [%] | pest or weed control at 0.0008 mg [4] [%] | pest or weed control at 0.16 ppm [5] [%] | pest or weed control at 0.8 ppm [5] [%] | pest or weed control at 4 ppm [5] [%] | pest or weed control at 100 ppm [6] [%] | pest or weed control at 100 ppm [7] [%] | pest or weed control at 100 ppm [8] [%] | pest or weed control at 0.032 ppm ([5]; dose 0.032 ppm in citrated cattle blood) [%] | pest or weed control at 1 µg/cm2, 1 µg/cm2 [9] [%] | pest or weed control at 0.2 µg/cm2, 0.2 µg/cm2 [9] [%]
1 | CN(C(=O)c1ccc(F)cc1F)c1cccc(C(=O)Nc2c(I)cc(C(F)(C(F)(F)F)C(F)(F)F)cc2C(F)(F)F)c1F [Compound 56] | 95 | 95 | 95 | 90 | 90 | 90 | 90 | 90 | 100 | 100 | 100 | 95 | 95 | 95 | ≥ 70 | ≥ 70 | ≥ 70 | – | – | –
2 | CN(C(=O)c1ccc(C(F)F)nc1)c1cccc(C(=O)Nc2c(I)cc(C(F)(C(F)(F)F)C(F)(F)F)cc2C(F)(F)F)c1F [Compound 87] | 95 | 95 | 95 | – | 90 | 90 | 90 | 90 | 100 | 100 | 100 | 95 | 95 | 95 | ≥ 70 | ≥ 70 | ≥ 70 | 95 | – | –
3 | CN(C(=O)c1ccc(F)c(F)c1)c1cccc(C(=O)Nc2c(Br)cc(C(F)(C(F)(F)F)C(F)(F)F)cc2OC(F)(F)F)c1F [Compound 100] | 95 | 95 | 95 | – | 90 | 90 | 90 | 90 | – | 100 | 100 | 95 | 95 | 95 | ≥ 70 | ≥ 70 | ≥ 70 | – | 90 | –
4 | CN(C(=O)c1ccc(C#N)nc1)c1cccc(C(=O)Nc2c(I)cc(C(F)(C(F)(F)F)C(F)(F)F)cc2C(F)(F)F)c1F [Compound 57] | 95 | 95 | 95 | – | – | 90 | 90 | 90 | 100 | 100 | 100 | 95 | 95 | 95 | ≥ 70 | ≥ 70 | ≥ 70 | – | 90 | 90
5 | CN(C(=O)c1ccc(Cl)cc1)c1cccc(C(=O)Nc2c(I)cc(C(F)(C(F)(F)F)C(F)(F)F)cc2C(F)(F)F)c1F [Compound 60] | – | 95 | 95 | – | 90 | 90 | – | 90 | 100 | 100 | 100 | 95 | 95 | 95 | ≥ 70 | ≥ 70 | ≥ 70 | – | 90 | 90
